Data taken from the NIST ThermoML archive (doi:10.1021/acs.jced.5b00849).
Several values for one entry are separate records, joined by “and”; a condition that tells them apart may be missing. Identical values can stand only once. Numbers after ± are expanded uncertainties.

What was measured:
[1] = Boiling temperature at pressure P; conditions: Liquid, Ebulliometric method (Recirculating still)
[2] = Liquid, Ebulliometric method (Recirculating still)
[3] = refractive index (Na D-line) (dimensionless); conditions: 101 kPa, Liquid, Standard Abbe refractometry
[4] = refractive index (Na D-line) (dimensionless); xn = mol fraction of the nth substance listed; conditions: 101 kPa, Liquid, Standard Abbe refractometry

CO [methanol]
[1]
Conditions | Boiling temperature at pressure P [°C]
40 kPa | 42.6 ± 2.8
46.66 kPa | 46 ± 2.6
58.8 kPa | 51.2 ± 2.3
67.59 kPa | 54.4 ± 2.1
76.13 kPa | 57.5 ± 2.1

O [water]
Conditions | refractive index, 293.2 K | refractive index, 298.2 K | vapor or sublimation pressure, 319.6 K [kPa] | vapor or sublimation pressure, 354.8 K [kPa] | vapor or sublimation pressure, 373.2 K [kPa]
[2] | – | – | 10.1 ± 4 | 50.6 ± 4 | 101.33 ± 4
[3] | 1.3332 ± 0.0004 | 1.3327 ± 0.0004 | – | – | –

O [water] + CC1CCC(=O)O1
[4], x2 = 0
Conditions | refractive index
293.2 K | 1.3332 ± 0.0004
298.2 K | 1.3327 ± 0.0004

CC1CCC(=O)O1 (stereo not given) [γ-valerolactone]
Conditions | refractive index | vapor or sublimation pressure
[2], 347.1 K | – | 0.67 kPa
[2], 356 K | – | 1.33 kPa
[2], 370.4 K | – | 2.67 ± 4 kPa
[2], 384.5 K | – | 5.07 ± 4 kPa
[2], 401.4 K | – | 10.1 ± 4 kPa and 10.13 ± 4 kPa
[2], 416.4 K | – | 17.33 ± 4 kPa
[2], 426.5 K | – | 24 ± 4 kPa
[2], 435.3 K | – | 31.6 ± 4 kPa
[2], 442.7 K | – | 39.46 ± 4 kPa
[2], 451.5 K | – | 50.6 ± 4 kPa and 50.66 ± 4 kPa
[2], 459.2 K | – | 62.26 ± 4 kPa
[2], 465.3 K | – | 73.06 ± 4 kPa
[2], 469 K | – | 80.53 ± 4 kPa
[2], 477.8 K | – | 101.19 ± 4 kPa
[2], 480.2 K | – | 101.33 ± 4 kPa
[3], 293.2 K | 1.4339 ± 0.0004 | –
[3], 298.2 K | 1.4316 ± 0.0004 | –

CC1CCC(=O)O1 (stereo not given) [γ-valerolactone] + O
refractive index, [4]
Conditions | 293.2 K | 298.2 K
x1 = 0.0158 | 1.342 ± 0.0004 | 1.3411 ± 0.0004
x1 = 0.0318 | 1.3505 ± 0.0004 | 1.3499 ± 0.0004
x1 = 0.0532 | 1.3591 ± 0.0004 | 1.3585 ± 0.0004
x1 = 0.0789 | 1.3682 ± 0.0004 | 1.3671 ± 0.0004
x1 = 0.1066 | 1.3761 ± 0.0004 | 1.3751 ± 0.0004
x1 = 0.1405 | 1.3837 ± 0.0004 | 1.3826 ± 0.0004
x1 = 0.1855 | 1.3913 ± 0.0004 | 1.39 ± 0.0004
x1 = 0.2295 | 1.3987 ± 0.0004 | 1.397 ± 0.0004
x1 = 0.2964 | 1.4062 ± 0.0004 | 1.4046 ± 0.0004
x1 = 0.3833 | 1.4135 ± 0.0004 | 1.4119 ± 0.0004
x1 = 0.5097 | 1.4204 ± 0.0004 | 1.4186 ± 0.0004
x1 = 0.7092 | 1.4273 ± 0.0004 | 1.4259 ± 0.0004
x1 = 1 | 1.4339 ± 0.0004 | 1.4316 ± 0.0004
